From patent US10544110B2, “Small molecule inhibitors of the nuclear translocation of androgen receptor for the treatment of castration-resistant prostate cancer” (University of Pittsburgh-Of the Commonwealth System of …, priority 2013, dated 2020) come the findings set out here.

Several values for one entry are separate records, joined by “and”; a condition that tells them apart may be missing. Equal values may be shown once.

The assay concerns AR transcriptional activity (PSA promoter activity). Description: PSA luciferase assay in C4-2-PSA-rl cells (Dual-Glo luciferase system). To be noted: for IC50 / activity in PSA luciferase assay (in words): C4-2-PSA-rl cells; for IC50: 24 h treatment, 1 nM R1881, mean and SD of 2-6 independent experiments; for activity in PSA luciferase assay (in words): up to 25 μM.

Procedure: C4-2-PSA-rl cells were seeded in 24-well plates such that they reached 75-80% cell monolayer density after 24 h. […] Each compound was tested in at least two independent experiments. Luciferase activity was assayed using the Dual-Luciferase® Reporter Assay System (Promega) using LMax II Microplate Reader (Molecular Devices). The luciferase assay results were acquired using SoftMax Pro5.45 software (Molecular Devices) and analyzed using GraphPad Prism. PSA6.1-luc activity was normalized to the Renilla luciferase activity. Relative luciferase activity was calculated as the quotient of androgen-induced PSA-firefly/Renilla luciferase activity. Since PSA promoter activity correlates to AR transcriptional activity, inhibition of AR will result in decreased PSA-luciferase activity.

With `Cc1ccccc1N1CCN(C(=O)[C@H]2C[C@@H]2c2ccccc2)CC1` (racemic) [Compound 16, ((1SR,2SR)-2-Phenylcyclopropyl)(4-(o-tolyl)piperazin-1-yl)methanone], the “activity in PSA luciferase assay (in words)” value (shortened to “activity … (in words)”) is “essentially inactive”. Besides, the IC50 (24 h) is above 25 µM. Consider `Cc1noc(C)c1CSCC(=O)N1CCN(c2ccccc2)CC1` [Compound 5a, 2-(((3,5-Dimethylisoxazol-4-yl)methyl)thio)-1-(4-phenylpiperazin-1-yl)ethanone], for which the “activity … (in words)” value is listed as “deleted activity”. For the same compound, the IC50 (24 h) is above 25 µM. For `Cc1ccccc1N1CCN(C(=O)CSCc2c(C)noc2C)CC1` [Compound 5b, 2-(((3,5-Dimethylisoxazol-4-yl)methyl)thio)-1-(4-(o-tolyl)piperazin-1-yl)ethanone], where the note is “24 h”, the concentration for half-maximal inhibition (IC50) was 14.5 µM. For the compound `Cc1cccc(N2CCN(C(=O)CSCc3c(C)noc3C)CC2)c1` [Compound 5c, 2-(((3,5-Dimethylisoxazol-4-yl)methyl)thio)-1-(4-(m-tolyl)piperazin-1-yl)ethanone], the “activity … (in words)” value was “loss of activity”. Moreover, the IC50 (24 h) was above 25 µM. The like results for `Cc1ccc(N2CCN(C(=O)CSCc3c(C)noc3C)CC2)cc1` [Compound 5d, 2-(((3,5-Dimethylisoxazol-4-yl)methyl)thio)-1-(4-(p-tolyl)piperazin-1-yl)ethanone] were, in that order, “loss of activity” and above 25 µM. `Cc1noc(C)c1CSCC(=O)N1CCN(c2ccccc2C#N)CC1` [Compound 5e, 2-(4-(2-(((3,5-Dimethylisoxazol-4-yl)methyl)thio)acetyl)piperazin-1-yl)benzonitrile] registered a half-inhibitory concentration (IC50) of 12 ± 1.6 µM. For the setting “24 h”, this compound displayed a concentration for half-maximal inhibition (IC50) of 12 to 13 µM. In turn, `Cc1noc(C)c1CSCC(=O)N1CCN(c2ccccc2F)CC1` [Compound 5f, 2-(((3,5-Dimethylisoxazol-4-yl)methyl)thio)-1-(4-(2-fluorophenyl)piperazin-1-yl)ethan-1-one] displayed a concentration for half-maximal inhibition (IC50) of 12.6 ± 7.7 µM. Besides, the IC50 (24 h) is 12 to 13 µM.

Take `Cc1noc(C)c1CSCC(=O)N1CCN(c2cccc3ccccc23)CC1` [Compound 5g, 2-(((3,5-Dimethylisoxazol-4-yl)methyl)thio)-1-(4-(naphthalen-1-yl)piperazin-1-yl)ethanone]: half-maximal inhibition (24 h) (IC50) was put at 11.1 µM. Consider `COc1ccccc1N1CCN(C(=O)CSCc2c(C)noc2C)CC1` [Compound 5h, 2-(((3,5-Dimethylisoxazol-4-yl)methyl)thio)-1-(4-(2-methoxyphenyl)piperazin-1-yl)ethanone], for which the “activity … (in words)” value is “complete loss of activity”. Under “24 h”, this compound displayed a half-maximal inhibitory concentration (IC50) above 25 µM.

As to `Cc1ccccc1N(C)CCN(C)C(=O)CSCc1c(C)noc1C` [Compound 5i, 2-(((3,5-Dimethylisoxazol-4-yl)methyl)thio)-N-methyl-N-(2-(methyl(o-tolyl)amino)ethyl) acetamide], the IC50 (24 h) amounted to 18.4 µM. Turning to `Cc1ccccc1N1CCCN(C(=O)CSCc2c(C)noc2C)CC1` [Compound 5j, 2-(((3,5-Dimethylisoxazol-4-yl)methyl)thio)-1-(4-(o-tolyl)-1,4-diazepan-1-yl)ethan-1-one], the IC50 (24 h) came out at 11.1 µM. On to `Cc1ccccc1N1C[C@@H](C)N(C(=O)CSCc2c(C)noc2C)[C@@H](C)C1` [Compound 5k, 1-(2,6-Dimethyl-4-(o-tolyl)piperazin-1-yl)-2-(((3,5-dimethylisoxazol-4-yl)methyl)thio)ethanone], for which the “activity … (in words)” value is listed as “significantly more potent than 1”. The compound also gave an IC50 (24 h) of 3.1 µM. In turn, `Cc1noc(C)c1CSCC(=O)N1C[C@@H](C)N(c2ccccc2)[C@@H](C)C1` [Compound 5l, 1-(3,5-Dimethyl-4-phenylpiperazin-1-yl)-2-(((3,5-dimethylisoxazol-4-yl)methyl)thio)ethan-1-one] had an IC50 of 14.7 ± 4.4 µM. For the same compound, the IC50 (24 h) lay within 15 to 17 µM. In the case of `Cc1cccc(N2[C@H](C)CN(C(=O)CSCc3c(C)noc3C)C[C@@H]2C)c1` [Compound 5m, 1-(3,5-Dimethyl-4-(m-tolyl)piperazin-1-yl)-2-(((3,5-dimethylisoxazol-4-yl)methyl)thio)ethan-1-one], the IC50 came out at 16.6 ± 4.8 µM. Moreover, for the setting “24 h”, the IC50 was in the range of 15 to 17 µM. As to `Cc1ccccc1N1CCN(CCSCc2c(C)noc2C)CC1` [Compound 6, 3,5-Dimethyl-4-(((2-(4-(o-tolyl)piperazin-1-yl)ethyl)thio)methyl)isoxazole], for the setting “24 h”, it took 10.8 µM to reach half-maximal inhibition (IC50). Further, where the note is “amine 6 vs amide 5b”, the “increase in activity relative to amide 5b” value came to 1.3 fold. For `Cc1ccccc1N1CCN(C(=O)CSCc2ccccc2)CC1` [Compound 7, 2-(Benzylthio)-1-(4-(o-tolyl)piperazin-1-yl)ethanone], the IC50 worked out at 13.7 ± 0.8 µM. Besides, the IC50 (24 h) was found to be 14 µM.

For `Cc1ccccc1N1CCN(C(=O)CCCc2ccccc2)CC1` [Compound 8, 4-Phenyl-1-(4-(o-tolyl)piperazin-1-yl)butan-1-one], it took 14.4 ± 3.7 µM to reach half-maximal inhibition (IC50). Also, the concentration for half-maximal inhibition (IC50) (24 h) amounted to 14 µM. As for `Cc1ccccc1N1CCN(C(=O)CSc2ccccc2)CC1` [Compound 9, 2-(Phenylthio)-1-(4-(o-tolyl)piperazin-1-yl)ethan-1-one], the “activity … (in words)” value is listed as “abolished activity”. Under “24 h”, the IC50 is above 25 µM. The corresponding values for `Cc1ccccc1N1CCN(C(=O)C#Cc2ccccc2)CC1` [Compound 10, 3-Phenyl-1-(4-(o-tolyl)piperazin-1-yl)prop-2-yn-1-one] are “essentially inactive” and 20.3 ± 11.6 µM. The like results for `Cc1ccccc1N1CCN(C(=O)/C=C/c2ccccc2)CC1` [Compound 11, (E)-3-Phenyl-1-(4-(o-tolyl)piperazin-1-yl)prop-2-en-1-one] were, in that order, “essentially inactive” and above 25 µM.

In the case of `Cc1ccccc1N1CCN(C(=O)C[S+]([O-])Cc2c(C)noc2C)CC1` (centres unmarked) [Compound 12, 2-(((3,5-Dimethylisoxazol-4-yl)methyl)sulfinyl)-1-(4-(o-tolyl)piperazin-1-yl)ethan-1-one], the “activity … (in words)” value is “inactive”. Where the note is “24 h”, this compound displayed an IC50 above 25 µM.

With `Cc1ccccc1N1CCN(C(=O)CS(=O)(=O)Cc2c(C)noc2C)CC1` [Compound 13, 2-(((3,5-Dimethylisoxazol-4-yl)methyl)sulfonyl)-1-(4-(o-tolyl)piperazin-1-yl)ethan-1-one], 16.1 µM corresponded to half-maximal inhibition (24 h) (IC50). `Cc1ccccc1N1CCN(C(=O)/C=C\c2ccccc2)CC1` [Compound 14, (Z)-3-Phenyl-1-(4-(o-tolyl)piperazin-1-yl)prop-2-en-1-one] returned an IC50 (24 h) of 12.7 µM. As to `Cc1ccccc1N1CCN(C(=O)C2CC2c2ccccc2)CC1` (centres unmarked) [Compound 15, (2-Phenylcyclopropyl)(4-(o-tolyl)piperazin-1-yl)methanone], the “activity … (in words)” value is “significantly more potent than 1”. Further, the midpoint of inhibition (24 h), the IC50, lay at 2.9 µM. The corresponding values for `Cc1ccccc1N1CCN(C(=O)COCc2c(C)noc2C)CC1` [Compound 18a, 2-((3,5-Dimethylisoxazol-4-yl)methoxy)-1-(4-(o-tolyl)piperazin-1-yl)ethan-1-one] are “abolished activity” and above 25 µM. With `Cc1ccccc1N1CCN(C(=O)CN(C)Cc2ccccc2)CC1` [Compound 18b, 2-(Benzyl(methyl)amino)-1-(4-(o-tolyl)piperazin-1-yl)ethanone], the “activity … (in words)” value is given as “abolished activity”. Moreover, for the setting “24 h”, the concentration for half-maximal inhibition (IC50) was above 25 µM. In turn, `Cc1ccccc1N1CCN(S(=O)(=O)CSCc2c(C)noc2C)CC1` [Compound 18c, 3,5-Dimethyl-4-(((((4-(o-tolyl)piperazin-1-yl)sulfonyl)methyl)thio)methyl)isoxazole] showed an IC50 (24 h) of 7.2 µM.

Take `Cc1ccccc1N1CCN(C(=O)NCSCc2c(C)noc2C)CC1` [Compound 20a, N-((((3,5-Dimethylisoxazol-4-yl)methyl)thio)methyl)-4-(o-tolyl)piperazine-1-carboxamide]: the “activity … (in words)” value was “inactive”. Moreover, the IC50 (24 h) was above 25 µM. The corresponding values for `Cc1ccccc1N1CCC(OC(=O)NCSCc2c(C)noc2C)CC1` [Compound 20b] are “inactive” and above 25 µM. `Cc1ccccc1C1CC2CCC(C1)N2C(=O)CSCc1c(C)noc1C` (stereo not drawn) [Compound 26a, 2-(((3,5-Dimethylisoxazol-4-yl)methyl)thio)-1-(3-endo-(o-tolyl)-8-azabicyclo[3.2.1]octan-8-yl)ethanone]: the IC50 was 8 µM and 7.7 µM. With `Cc1ccccc1[C@@H]1C[C@H]2CC[C@@H](C1)N2C(=O)CSCc1c(C)noc1C` [Compound 26b], the IC50 was 8 µM and 7.9 µM. Consider `Cc1ccc(Cl)cc1N1CCN(C(=O)[C@H]2C[C@H]2c2ccc(F)cc2)CC1` [JJ-450A, (4-(5-chloro-2-methylphenyl)piperazin-1-yl)((1S,2R)-2-(4-fluorophenyl)cyclopropyl)methanone], for which the “activity … (in words)” value is reported as “significantly more potent than 1”. Moreover, the midpoint of inhibition (24 h), the IC50, lay at 1.6 ± 0.1 µM. Consider `Cc1ccc(Cl)cc1N1CCN(C(=O)[C@@H]2C[C@@H]2c2ccc(F)cc2)CC1` [JJ-450B, (4-(5-Chloro-2-methylphenyl)piperazin-1-yl)((1R,2S)-2-(4-fluorophenyl)cyclopropyl)-methanone], for which the IC50 (24 h) was determined as 13.1 ± 1.8 µM.

By IC50 is commonly meant the concentration that inhibits the measured activity by half.
